The molecules below were run against T1, GLP-1R (Homo sapiens, UniProt P43220) (assay: GLP-1R activation cAMP assay (Assay 1 or Assay 2)). Conditions: cAMP increase in CHO cells stably expressing GLP-1R; compounds run on one of the two cAMP assays.
T1 construct: host or cells: CHO cells
Assay type: cell-based
Summary of the method: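 CHO cells stably expressing human GLP-1R were incubated 1 h in HBSS/20 mM HEPES/0.1% BSA, then exposed to 10-point agonist dilutions for 30 min at 37 °C. cAMP increase was measured with an HTRF Gs dynamic kit; EC50 from sigmoidal fit of response versus log concentration.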

T1 sequence (P43220 24-463): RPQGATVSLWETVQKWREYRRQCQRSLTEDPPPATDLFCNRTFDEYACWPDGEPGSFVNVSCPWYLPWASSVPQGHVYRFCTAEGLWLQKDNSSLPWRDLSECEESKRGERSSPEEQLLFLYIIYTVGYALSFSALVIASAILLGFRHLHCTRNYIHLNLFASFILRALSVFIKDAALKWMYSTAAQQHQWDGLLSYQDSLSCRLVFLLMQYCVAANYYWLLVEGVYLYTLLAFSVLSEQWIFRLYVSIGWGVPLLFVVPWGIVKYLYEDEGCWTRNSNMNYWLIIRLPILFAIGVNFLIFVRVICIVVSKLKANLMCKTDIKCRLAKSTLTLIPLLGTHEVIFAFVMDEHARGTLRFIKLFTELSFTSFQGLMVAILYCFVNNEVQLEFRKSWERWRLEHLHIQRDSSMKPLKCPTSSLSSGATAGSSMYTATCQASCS

EC50	SMILES
0.91 nM	O=C(O)c1ccc2nc(Cc3cc(F)c(-c4cccc(OCc5cnc(C(=O)NC6(C(F)F)CC6)cc5Cl)n4)cc3F)n(C[C@@H]3CCO3)c2c1 [Example 186, (S)-2-(4-(6-((4-chloro-6-((1-(difluoromethyl)cyclopropyl)carbamoyl)pyridin-3-yl)methoxy)pyridin-2-yl)-2,5-difluorobenzyl)-1-(oxetan-2-ylmethyl)-1H-benzo[d]imidazole-6-carboxylic acid]
3.72 nM	NC(=O)c1ccc(COc2cccc(-c3cc(F)c(Cc4nc5ccc(C(=O)O)cc5n4C[C@@H]4CCO4)cc3F)n2)s1 [Example 127, (S)-2-(4-(6-((5-carbamoylthiophen-2-yl)methoxy)pyridin-2-yl)-2,5-difluorobenzyl)-1-(oxetan-2-ylmethyl)-1H-benzo[d]imidazole-6-carboxylic acid]
0.51 nM	Cn1ccnc1C#Cc1ccc(COc2cccc(-c3cc(F)c(Cc4nc5ccc(C(=O)O)cc5n4C[C@@H]4CCO4)cc3F)n2)c(F)c1 [Example 148, (S)-2-(2,5-difluoro-4-(6-((2-fluoro-4-((1-methyl-1H-imidazol-2-yl)ethynyl)benzyl)oxy)pyridin-2-yl)benzyl)-1-(oxetan-2-ylmethyl)-1H-benzo[d]imidazole-6-carboxylic acid]
0.62 nM	Cn1cc(-c2cc(COc3cccc(-c4cc(F)c(Cc5nc6ccc(C(=O)O)cc6n5C[C@@H]5CCO5)cc4F)n3)nn2C)cn1 [Example 109, (S)-2-(4-(6-((1′,2-dimethyl-1′H,2H-[3,4′-bipyrazol]-5-yl)methoxy)pyridin-2-yl)-2,5-difluorobenzyl)-1-(oxetan-2-ylmethyl)-1H-benzo[d]imidazole-6-carboxylic acid]
0.95 nM	Cn1nc(COc2cccc(-c3cc(F)c(Cc4nc5ccc(C(=O)O)cc5n4C[C@@H]4CCO4)cc3F)n2)cc1-c1cnn(C(F)F)c1 [Example 110, (S)-2-(4-(6-((1′-(difluoromethyl)-2-methyl-1′H,2H-[3,4′-bipyrazol]-5-yl)methoxy)pyridin-2-yl)-2,5-difluorobenzyl)-1-(oxetan-2-ylmethyl)-1H-benzo[d]imidazole-6-carboxylic acid]
0.95 nM	O=C(O)c1ccc2nc(Cc3cc(F)c(-c4cccc(OCc5ccn(C(F)F)n5)n4)cc3F)n(C[C@@H]3CCO3)c2c1 [Example 9, (S)-2-(4-(6-((1-(difluoromethyl)-1H-pyrazol-3-yl)methoxy)pyridin-2-yl)-2,5-difluorobenzyl)-1-(oxetan-2-ylmethyl)-1H-benzo[d]imidazole-6-carboxylic acid]
0.41 nM	O=C(O)c1ccc2nc(Cc3cc(F)c(-c4cccc(OCc5cnc(Br)s5)n4)cc3F)n(C[C@@H]3CCO3)c2c1 [Example 21, (S)-2-(4-(6-((2-bromothiazol-5-yl)methoxy)pyridin-2-yl)-2,5-difluorobenzyl)-1-(oxetan-2-ylmethyl)-1H-benzo[d]imidazole-6-carboxylic acid]
0.13 nM	O=C(O)c1ccc2nc(Cc3cc(F)c(-c4cccc(OCc5nnc(-c6cnn(C7CC7)c6)s5)n4)cc3F)n(C[C@@H]3CCO3)c2c1 [Example 96, (S)-2-(4-(6-((5-(1-cyclopropyl-1H-pyrazol-4-yl)-1,3,4-thiadiazol-2-yl)methoxy)pyridin-2-yl)-2,5-difluorobenzyl)-1-(oxetan-2-ylmethyl)-1H-benzo[d]imidazole-6-carboxylic acid]
1.87 nM	CC(=O)N1CC(Oc2nnc(COc3cccc(-c4cc(F)c(Cc5nc6ccc(C(=O)O)cc6n5C[C@@H]5CCO5)cc4F)n3)s2)C1 [Example 348, (S)-2-(4-(6-((5-((1-acetylazetidin-3-yl)oxy)-1,3,4-thiadiazol-2-yl)methoxy)pyridin-2-yl)-2,5-difluorobenzyl)-1-(oxetan-2-ylmethyl)-1H-benzo[d]imidazole-6-carboxylic acid]
0.14 nM	NC(=O)c1cnc(COc2cccc(-c3cc(F)c(Cc4nc5ccc(C(=O)O)cc5n4C[C@@H]4CCO4)cc3F)n2)cn1 [Example 209, (S)-2-(4-(6-((5-carbamoylpyrazin-2-yl)methoxy)pyridin-2-yl)-2,5-difluorobenzyl)-1-(oxetan-2-ylmethyl)-1H-benzo[d]imidazole-6-carboxylic acid]
0.1 nM	O=C(O)c1ccc2nc(Cc3cc(F)c(-c4cccc(OCc5ccc(-c6cnn(C7COC7)c6)cc5F)n4)cc3F)n(C[C@@H]3CCO3)c2c1 [Example 164, (S)-2-(2,5-difluoro-4-(6-((2-fluoro-4-(1-(oxetan-3-yl)-1H-pyrazol-4-yl)benzyl)oxy)pyridin-2-yl)benzyl)-1-(oxetan-2-ylmethyl)-1H-benzo[d]imidazole-6-carboxylic acid]
0.374 nM	CC1(C)COC[C@H]1n1c(Cc2cc(F)c(-c3cccc(OCc4ncc(Cl)s4)n3)cc2F)nc2ccc(C(=O)O)cc21 [Example 254, (S)-2-(4-(6-((5-chlorothiazol-2-yl)methoxy)pyridin-2-yl)-2,5-difluorobenzyl)-1-(4,4-dimethyltetrahydrofuran-3-yl)-1H-benzo[d]imidazole-6-carboxylic acid]
0.29 nM	Cn1nccc1NC(=O)c1cc(Cl)c(COc2cccc(-c3cc(F)c(Cc4nc5ccc(C(=O)O)cc5n4C[C@@H]4CCO4)cc3F)n2)cn1 [Example 196, (S)-2-(4-(6-((4-chloro-6-((1-methyl-1H-pyrazol-5-yl)carbamoyl)pyridin-3-yl)methoxy)pyridin-2-yl)-2,5-difluorobenzyl)-1-(oxetan-2-ylmethyl)-1H-benzo[d]imidazole-6-carboxylic acid]
0.6 nM	Cn1ccc(C#Cc2ccc(COc3cccc(-c4cc(F)c(Cc5nc6ccc(C(=O)O)cc6n5C[C@@H]5CCO5)cc4F)n3)c(F)c2)n1 [Example 134, (S)-2-(2,5-difluoro-4-(6-((2-fluoro-4-((1-methyl-1H-pyrazol-3-yl)ethynyl)benzyl)oxy)pyridin-2-yl)benzyl)-1-(oxetan-2-ylmethyl)-1H-benzo[d]imidazole-6-carboxylic acid]
0.202 nM	Cn1cc(C#Cc2ccc(COc3nc(-c4cc(F)c(Cc5nc6c(F)cc(C(=O)O)cc6n5C[C@@H]5CCO5)cc4F)ccc3F)cn2)cn1 [Example 295, (S)-2-(2,5-difluoro-4-(5-fluoro-6-((6-((1-methyl-1H-pyrazol-4-yl)ethynyl)pyridin-3-yl)methoxy)pyridin-2-yl)benzyl)-4-fluoro-1-(oxetan-2-ylmethyl)-1H-benzo[d]imidazole-6-carboxylic acid]
0.26 nM	CNC(=O)c1cc(Cl)c(COc2cccc(-c3cc(F)c(Cc4nc5c(F)cc(C(=O)O)cc5n4CC4(CF)CC4)cc3F)n2)cn1 [Example 417, 2-(4-(6-((4-chloro-6-(methylcarbamoyl)pyridin-3-yl)methoxy)pyridin-2-yl)-2,5-difluorobenzyl)-4-fluoro-1-((1-(fluoromethyl)cyclopropyl)methyl)-1H-benzo[d]imidazole-6-carboxylic acid]
0.109 nM	Cc1nnc(COc2cccc(-c3cc(F)c(Cc4nc5c(F)cc(C(=O)O)cc5n4[C@@H]4COCC4(C)C)cc3F)n2)s1 [Example 283, (S)-2-(2,5-difluoro-4-(6-((5-methyl-1,3,4-thiadiazol-2-yl)methoxy)pyridin-2-yl)benzyl)-1-(4,4-dimethyltetrahydrofuran-3-yl)-4-fluoro-1H-benzo[d]imidazole-6-carboxylic acid]
0.096 nM	O=C(O)c1ccc2nc(Cc3cc(F)c(-c4cccc(OCc5ccc(C#Cc6cnc(Cl)nc6)cc5)n4)cc3F)n(C[C@@H]3CCO3)c2c1 [Example 403, (S)-2-(4-(6-((4-((2-chloropyrimidin-5-yl)ethynyl)benzyl)oxy)pyridin-2-yl)-2,5-difluorobenzyl)-1-(oxetan-2-ylmethyl)-1H-benzo[d]imidazole-6-carboxylic acid]
0.929 nM	Cc1c(C#Cc2ccc(COc3cccc(-c4cc(F)c(Cc5nc6ccc(C(=O)O)cc6n5C[C@@H]5CCO5)cc4F)n3)c(F)c2)cnn1C [Example 364, (S)-2-(4-(6-((4-((1,5-dimethyl-1H-pyrazol-4-yl)ethynyl)-2-fluorobenzyl)oxy)pyridin-2-yl)-2,5-difluorobenzyl)-1-(oxetan-2-ylmethyl)-1H-benzo[d]imidazole-6-carboxylic acid]
0.5 nM	NC(=O)c1csc(COc2cccc(-c3cc(F)c(Cc4nc5ccc(C(=O)O)cc5n4C[C@@H]4CCO4)cc3F)n2)n1 [Example 5, (S)-2-(4-(6-((4-carbamoylthiazol-2-yl)methoxy)pyridin-2-yl)-2,5-difluorobenzyl)-1-(oxetan-2-ylmethyl)-1H-benzo[d]imidazole-6-carboxylic acid]
0.451 nM	O=C(O)c1ccc2nc(Cc3cc(F)c(-c4cccc(OCc5ncc(C#CC6(C(F)F)CC6)s5)n4)cc3F)n(C[C@@H]3CCO3)c2c1 [Example 326, (S)-2-(4-(6-((5-((1-(difluoromethyl)cyclopropyl)ethynyl)thiazol-2-yl)methoxy)pyridin-2-yl)-2,5-difluorobenzyl)-1-(oxetan-2-ylmethyl)-1H-benzo[d]imidazole-6-carboxylic acid]
20.8 nM	Cc1nnc(COc2cccc(-c3cc(F)c(Cc4nc5ccc(C(=O)O)cc5n4[C@H]4COCC4(C)C)c(F)c3F)n2)s1 (single isomer, unassigned) [Example 281B]
0.087 nM	CCOc1nnc(COc2nc(-c3cc(Cl)c(Cc4nc5c(F)cc(C(=O)O)cc5n4[C@@H]4COCC4(C)C)cc3C)ccc2F)s1 [Example 421, (S)-2-(2-chloro-4-(6-((5-ethoxy-1,3,4-thiadiazol-2-yl)methoxy)-5-fluoropyridin-2-yl)-5-methylbenzyl)-1-(4,4-dimethyltetrahydrofuran-3-yl)-4-fluoro-1H-benzo[d]imidazole-6-carboxylic acid]
0.14 nM	Cn1cc(C#Cc2cnc(COc3cccc(-c4cc(F)c(Cc5nc6ccc(C(=O)O)cc6n5C[C@@H]5CCO5)cc4F)n3)c(F)c2)cn1 [Example 143, (S)-2-(2,5-difluoro-4-(6-((3-fluoro-5-((1-methyl-1H-pyrazol-4-yl)ethynyl)pyridin-2-yl)methoxy)pyridin-2-yl)benzyl)-1-(oxetan-2-ylmethyl)-1H-benzo[d]imidazole-6-carboxylic acid]

Reference: US20250312352A1, “GLP-1R MODULATING COMPOUNDS” (Gilead Sciences, Inc., priority 2021, published 2025)
